# Experimental data as given in the kinase profiling compilation of Christmann-Franck et al. (2016).
# How the values were obtained:
# Assay in all cases: KINOMEscan competition binding
# Details in all cases: compound 10.0 µM
# [1] = test system: ABL1 (human), P00519 [Q252H]
# BMPR1A (human) = BMPR1A (human) (UniProt P36894)
# BMX (human) = BMX (human) (UniProt P51813)
# CAMK1D (human) = CAMK1D (human) (UniProt Q8IU85)
# CDC42BPB (human) = CDC42BPB (human) (UniProt Q9Y5S2)
# CDK14 (human) = CDK14 (human) (UniProt O94921)
# CSF1R (human) = CSF1R (human) (UniProt P07333)
# CSK (human) = CSK (human) (UniProt P41240)
# CSNK1G3 (human) = CSNK1G3 (human) (UniProt Q9Y6M4)
# EPHA3 (human) = EPHA3 (human) (UniProt P29320)
# EPHB4 (human) = EPHB4 (human) (UniProt P54760)
# ERBB2 (human) = ERBB2 (human) (UniProt P04626)
# ERBB3 (human) = ERBB3 (human) (UniProt P21860)
# FGFR4 (human) = FGFR4 (human) (UniProt P22455)
# FGR (human) = FGR (human) (UniProt P09769)
# FLT1 (human) = FLT1 (human) (UniProt P17948)
# [2] = test system: FLT3 (human), P36888 [N841I]
# FLT4 (human) = FLT4 (human) (UniProt P35916)
# FRK (human) = FRK (human) (UniProt P42685)
# FYN (human) = FYN (human) (UniProt P06241)
# [3] = molecular target: JAK1 JH2 pseudokinase (human) (UniProt P23458)
# KDR (human) = KDR (human) (UniProt P35968)
# MAP3K6 (human) = MAP3K6 (human) (UniProt O95382)
# MAP3K9 (human) = MAP3K9 (human) (UniProt P80192)
# MAPK10 (human) = MAPK10 (human) (UniProt P53779)
# MAPKAPK2 (human) = MAPKAPK2 (human) (UniProt P49137)
# MATK (human) = MATK (human) (UniProt P42679)
# MELK (human) = MELK (human) (UniProt Q14680)
# PAK7 (human) = PAK7 (human) (UniProt Q9P286)
# PDGFRB (human) = PDGFRB (human) (UniProt P09619)
# [4] = test system: PIK3CA (human), P42336 [H1047Y]
# PRKD1 (human) = PRKD1 (human) (UniProt Q15139)
# PRKD3 (human) = PRKD3 (human) (UniProt O94806)
# PRPF4B (human) = PRPF4B (human) (UniProt Q13523)
# RAF1 (human) = RAF1 (human) (UniProt P04049)
# [5] = test system: RET (human), P07949 [M918T]
# RIPK4 (human) = RIPK4 (human) (UniProt P57078)
# ROS1 (human) = ROS1 (human) (UniProt P08922)
# RPS6KA6 KD1 (human) = RPS6KA6 KD1 (human) (UniProt Q9UK32)
# SRC (human) = SRC (human) (UniProt P12931)
# STK16 (human) = STK16 (human) (UniProt O75716)
# ULK1 (human) = ULK1 (human) (UniProt O75385)
# Chain of FLT1 (human) (P17948 whole entry, looked up): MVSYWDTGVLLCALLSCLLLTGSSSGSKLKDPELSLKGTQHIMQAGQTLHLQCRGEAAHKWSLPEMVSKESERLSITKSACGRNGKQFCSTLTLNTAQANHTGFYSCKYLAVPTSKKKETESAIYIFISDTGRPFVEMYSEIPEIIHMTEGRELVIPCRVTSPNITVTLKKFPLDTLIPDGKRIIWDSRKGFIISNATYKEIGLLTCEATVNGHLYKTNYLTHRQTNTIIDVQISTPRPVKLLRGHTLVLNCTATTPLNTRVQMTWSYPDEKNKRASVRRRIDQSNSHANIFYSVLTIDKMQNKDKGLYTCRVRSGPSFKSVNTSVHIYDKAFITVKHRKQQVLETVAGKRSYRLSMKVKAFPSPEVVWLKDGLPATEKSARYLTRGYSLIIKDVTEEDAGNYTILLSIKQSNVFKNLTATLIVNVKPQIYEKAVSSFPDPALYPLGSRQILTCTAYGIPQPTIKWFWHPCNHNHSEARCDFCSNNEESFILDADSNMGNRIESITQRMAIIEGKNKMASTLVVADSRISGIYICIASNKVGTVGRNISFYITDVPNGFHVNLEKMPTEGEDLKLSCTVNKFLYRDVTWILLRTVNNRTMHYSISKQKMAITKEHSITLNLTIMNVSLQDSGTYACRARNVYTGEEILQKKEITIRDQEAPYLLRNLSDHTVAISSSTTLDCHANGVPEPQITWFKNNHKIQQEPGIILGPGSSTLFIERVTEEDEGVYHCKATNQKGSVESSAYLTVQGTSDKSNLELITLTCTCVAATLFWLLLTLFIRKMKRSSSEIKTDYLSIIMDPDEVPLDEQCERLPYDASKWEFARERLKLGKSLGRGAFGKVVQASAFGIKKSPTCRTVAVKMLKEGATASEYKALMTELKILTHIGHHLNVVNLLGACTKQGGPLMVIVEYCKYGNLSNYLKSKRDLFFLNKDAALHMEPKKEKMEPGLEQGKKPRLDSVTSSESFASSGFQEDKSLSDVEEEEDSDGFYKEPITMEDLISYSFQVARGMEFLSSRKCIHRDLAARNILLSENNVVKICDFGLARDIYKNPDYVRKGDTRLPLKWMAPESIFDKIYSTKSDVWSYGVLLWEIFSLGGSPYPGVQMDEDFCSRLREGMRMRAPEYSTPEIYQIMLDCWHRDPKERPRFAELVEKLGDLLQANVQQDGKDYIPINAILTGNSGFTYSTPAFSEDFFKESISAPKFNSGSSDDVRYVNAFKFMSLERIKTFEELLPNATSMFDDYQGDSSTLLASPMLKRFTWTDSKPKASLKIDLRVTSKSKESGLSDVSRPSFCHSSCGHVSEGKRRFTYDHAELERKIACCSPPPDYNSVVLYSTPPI
# Chain of CSNK1G3 (human) (Q9Y6M4 whole entry, looked up): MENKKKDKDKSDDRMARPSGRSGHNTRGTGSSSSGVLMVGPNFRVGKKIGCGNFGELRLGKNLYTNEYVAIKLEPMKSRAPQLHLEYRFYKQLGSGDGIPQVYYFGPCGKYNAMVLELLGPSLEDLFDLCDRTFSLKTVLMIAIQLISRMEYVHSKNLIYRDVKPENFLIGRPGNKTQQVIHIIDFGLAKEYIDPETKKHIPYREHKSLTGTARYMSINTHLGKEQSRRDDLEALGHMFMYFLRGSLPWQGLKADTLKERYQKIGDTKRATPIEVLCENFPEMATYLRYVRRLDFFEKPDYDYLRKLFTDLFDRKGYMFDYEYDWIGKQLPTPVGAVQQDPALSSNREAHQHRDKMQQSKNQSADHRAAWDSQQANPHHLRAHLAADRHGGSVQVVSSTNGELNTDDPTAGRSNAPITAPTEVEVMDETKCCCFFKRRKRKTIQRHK
# Chain of RPS6KA6 KD1 (human) (Q9UK32 whole entry, looked up): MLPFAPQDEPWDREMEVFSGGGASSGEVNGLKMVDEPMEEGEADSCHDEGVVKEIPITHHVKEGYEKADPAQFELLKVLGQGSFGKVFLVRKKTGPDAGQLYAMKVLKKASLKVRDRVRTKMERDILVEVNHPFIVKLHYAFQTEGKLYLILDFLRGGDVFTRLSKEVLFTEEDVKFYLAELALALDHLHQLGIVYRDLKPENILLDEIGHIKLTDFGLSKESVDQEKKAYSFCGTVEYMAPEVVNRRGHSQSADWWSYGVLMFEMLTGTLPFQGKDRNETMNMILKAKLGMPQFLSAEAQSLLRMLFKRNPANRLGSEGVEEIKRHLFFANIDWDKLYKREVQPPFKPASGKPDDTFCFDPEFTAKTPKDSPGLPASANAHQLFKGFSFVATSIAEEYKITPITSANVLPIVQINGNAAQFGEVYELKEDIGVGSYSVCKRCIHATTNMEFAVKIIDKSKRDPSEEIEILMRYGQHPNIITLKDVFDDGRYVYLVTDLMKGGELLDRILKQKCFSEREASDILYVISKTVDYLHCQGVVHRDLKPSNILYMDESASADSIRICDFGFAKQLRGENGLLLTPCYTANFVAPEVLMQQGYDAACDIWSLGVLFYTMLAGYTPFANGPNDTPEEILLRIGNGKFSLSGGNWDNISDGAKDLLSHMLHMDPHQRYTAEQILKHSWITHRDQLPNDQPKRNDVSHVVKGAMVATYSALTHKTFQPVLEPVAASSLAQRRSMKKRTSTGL
# Chain of MAP3K9 (human) (P80192 whole entry, looked up): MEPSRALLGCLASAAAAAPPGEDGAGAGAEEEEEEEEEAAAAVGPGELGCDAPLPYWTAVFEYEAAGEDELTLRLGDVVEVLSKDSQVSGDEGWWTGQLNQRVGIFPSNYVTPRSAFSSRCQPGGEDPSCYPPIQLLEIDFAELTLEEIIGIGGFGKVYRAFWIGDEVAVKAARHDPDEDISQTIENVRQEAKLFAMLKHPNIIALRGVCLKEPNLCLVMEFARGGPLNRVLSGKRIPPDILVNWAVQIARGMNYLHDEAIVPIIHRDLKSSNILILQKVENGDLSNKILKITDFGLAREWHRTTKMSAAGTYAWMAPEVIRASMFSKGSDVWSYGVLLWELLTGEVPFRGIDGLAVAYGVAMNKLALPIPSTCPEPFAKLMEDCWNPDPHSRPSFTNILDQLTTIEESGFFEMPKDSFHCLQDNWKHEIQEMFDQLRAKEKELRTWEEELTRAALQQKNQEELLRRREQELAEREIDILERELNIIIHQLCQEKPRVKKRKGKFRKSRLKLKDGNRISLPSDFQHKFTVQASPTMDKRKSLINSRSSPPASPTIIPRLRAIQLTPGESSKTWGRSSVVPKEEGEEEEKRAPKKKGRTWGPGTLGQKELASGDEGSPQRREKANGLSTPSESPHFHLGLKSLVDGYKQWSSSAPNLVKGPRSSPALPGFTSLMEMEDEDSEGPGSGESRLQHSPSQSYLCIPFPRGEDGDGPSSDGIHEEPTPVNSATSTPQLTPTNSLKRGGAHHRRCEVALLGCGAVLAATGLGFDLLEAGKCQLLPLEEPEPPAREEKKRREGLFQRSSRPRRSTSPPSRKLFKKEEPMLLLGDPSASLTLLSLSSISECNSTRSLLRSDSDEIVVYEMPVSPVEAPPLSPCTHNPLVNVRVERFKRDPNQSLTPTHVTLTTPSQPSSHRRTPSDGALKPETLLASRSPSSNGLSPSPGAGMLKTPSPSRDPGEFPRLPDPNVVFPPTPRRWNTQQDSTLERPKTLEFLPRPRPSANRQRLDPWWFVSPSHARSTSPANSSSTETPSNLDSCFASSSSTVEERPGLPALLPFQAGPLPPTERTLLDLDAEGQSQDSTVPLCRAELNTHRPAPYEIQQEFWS
# Chain of FYN (human) (P06241 whole entry, looked up): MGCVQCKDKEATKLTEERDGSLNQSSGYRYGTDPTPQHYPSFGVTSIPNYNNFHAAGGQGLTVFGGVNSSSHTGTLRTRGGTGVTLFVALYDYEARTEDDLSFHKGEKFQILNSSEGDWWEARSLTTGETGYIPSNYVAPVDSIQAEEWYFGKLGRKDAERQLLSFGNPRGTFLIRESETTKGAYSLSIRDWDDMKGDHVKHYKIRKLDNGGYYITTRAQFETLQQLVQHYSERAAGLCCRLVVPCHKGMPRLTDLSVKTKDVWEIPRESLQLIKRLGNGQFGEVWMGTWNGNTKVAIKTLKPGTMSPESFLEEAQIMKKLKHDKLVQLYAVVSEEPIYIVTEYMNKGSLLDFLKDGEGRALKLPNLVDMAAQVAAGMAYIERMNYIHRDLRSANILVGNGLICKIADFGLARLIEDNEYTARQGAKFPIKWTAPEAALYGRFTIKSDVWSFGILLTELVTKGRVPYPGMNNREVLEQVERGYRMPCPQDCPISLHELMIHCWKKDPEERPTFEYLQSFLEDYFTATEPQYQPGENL
# Chain of MATK (human) (P42679 whole entry, looked up): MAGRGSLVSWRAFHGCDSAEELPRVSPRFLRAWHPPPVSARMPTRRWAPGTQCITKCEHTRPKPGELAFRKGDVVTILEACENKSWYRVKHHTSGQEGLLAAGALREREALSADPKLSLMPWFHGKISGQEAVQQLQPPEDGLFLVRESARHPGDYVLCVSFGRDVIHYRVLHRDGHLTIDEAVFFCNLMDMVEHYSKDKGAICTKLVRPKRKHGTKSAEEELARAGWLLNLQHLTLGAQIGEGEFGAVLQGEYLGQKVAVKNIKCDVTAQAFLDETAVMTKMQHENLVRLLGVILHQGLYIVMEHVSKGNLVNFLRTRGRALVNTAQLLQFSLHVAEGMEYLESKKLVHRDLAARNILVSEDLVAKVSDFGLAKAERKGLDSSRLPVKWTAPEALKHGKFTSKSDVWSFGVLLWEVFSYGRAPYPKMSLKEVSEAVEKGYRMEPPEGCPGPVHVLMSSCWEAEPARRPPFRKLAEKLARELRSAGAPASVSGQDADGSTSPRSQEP
# Chain of CAMK1D (human) (Q8IU85 whole entry, looked up): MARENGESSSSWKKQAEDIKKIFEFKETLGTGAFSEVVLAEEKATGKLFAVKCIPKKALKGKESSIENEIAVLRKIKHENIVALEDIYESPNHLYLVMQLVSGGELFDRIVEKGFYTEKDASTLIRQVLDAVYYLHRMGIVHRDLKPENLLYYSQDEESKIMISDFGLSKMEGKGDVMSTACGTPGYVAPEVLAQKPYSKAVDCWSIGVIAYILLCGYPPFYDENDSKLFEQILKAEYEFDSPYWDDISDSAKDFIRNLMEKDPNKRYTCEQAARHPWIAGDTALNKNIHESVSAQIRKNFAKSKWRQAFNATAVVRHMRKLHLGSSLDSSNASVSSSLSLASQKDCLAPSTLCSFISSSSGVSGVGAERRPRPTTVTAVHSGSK
smiles,measurement,setting,value
Cc1cnc(-c2cnc(NCCNc3ccc(C#N)cn3)nc2-c2ccc(Cl)cc2Cl)[nH]1,"kinase still bound, per cent of control",[1],100%
same,"kinase still bound, per cent of control",BMPR1A (human),100%
same,"kinase still bound, per cent of control",BMX (human),100%
same,"kinase still bound, per cent of control",CAMK1D (human),100%
same,"kinase still bound, per cent of control",CDC42BPB (human),100%
same,"kinase still bound, per cent of control",CDK14 (human),100%
same,"kinase still bound, per cent of control",CSF1R (human),90%
same,"kinase still bound, per cent of control",CSK (human),100%
same,"kinase still bound, per cent of control",CSNK1G3 (human),56%
same,"kinase still bound, per cent of control",EPHA3 (human),100%
same,"kinase still bound, per cent of control",EPHB4 (human),100%
same,"kinase still bound, per cent of control",ERBB2 (human),100%
same,"kinase still bound, per cent of control",ERBB3 (human),73%
same,"kinase still bound, per cent of control",FGFR4 (human),100%
same,"kinase still bound, per cent of control",FGR (human),100%
same,"kinase still bound, per cent of control",FLT1 (human),79%
same,"kinase still bound, per cent of control",[2],75%
same,"kinase still bound, per cent of control",FLT4 (human),100%
same,"kinase still bound, per cent of control",FRK (human),100%
same,"kinase still bound, per cent of control",FYN (human),100%
same,"kinase still bound, per cent of control",[3],87%
same,"kinase still bound, per cent of control",KDR (human),100%
same,"kinase still bound, per cent of control",MAP3K6 (human),80%
same,"kinase still bound, per cent of control",MAP3K9 (human),55%
same,"kinase still bound, per cent of control",MAPK10 (human),64%
same,"kinase still bound, per cent of control",MAPKAPK2 (human),100%
same,"kinase still bound, per cent of control",MATK (human),79%
same,"kinase still bound, per cent of control",MELK (human),40%
same,"kinase still bound, per cent of control",PAK7 (human),100%
same,"kinase still bound, per cent of control",PDGFRB (human),74%
same,"kinase still bound, per cent of control",[4],69%
same,"kinase still bound, per cent of control",PRKD1 (human),100%
same,"kinase still bound, per cent of control",PRKD3 (human),88%
same,"kinase still bound, per cent of control",PRPF4B (human),100%
same,"kinase still bound, per cent of control",RAF1 (human),100%
same,"kinase still bound, per cent of control",[5],100%
same,"kinase still bound, per cent of control",RIPK4 (human),100%
same,"kinase still bound, per cent of control",ROS1 (human),100%
same,"kinase still bound, per cent of control",RPS6KA6 KD1 (human),89%
same,"kinase still bound, per cent of control",SRC (human),100%
same,"kinase still bound, per cent of control",STK16 (human),91%
same,"kinase still bound, per cent of control",ULK1 (human),94%
Cn1cc(C2=C(c3ccc(Cl)cc3Cl)C(=O)NC2=O)c2ccccc21,"kinase still bound, per cent of control",[1],100%
same,"kinase still bound, per cent of control",BMPR1A (human),100%
same,"kinase still bound, per cent of control",BMX (human),78%
same,"kinase still bound, per cent of control",CAMK1D (human),76%
same,"kinase still bound, per cent of control",CDC42BPB (human),97%
same,"kinase still bound, per cent of control",CDK14 (human),29%
same,"kinase still bound, per cent of control",CSF1R (human),87%
same,"kinase still bound, per cent of control",CSK (human),100%
same,"kinase still bound, per cent of control",CSNK1G3 (human),69%
same,"kinase still bound, per cent of control",EPHA3 (human),76%
same,"kinase still bound, per cent of control",EPHB4 (human),100%
same,"kinase still bound, per cent of control",ERBB2 (human),100%
same,"kinase still bound, per cent of control",ERBB3 (human),57%
same,"kinase still bound, per cent of control",FGFR4 (human),88%
same,"kinase still bound, per cent of control",FGR (human),100%
same,"kinase still bound, per cent of control",FLT1 (human),100%
same,"kinase still bound, per cent of control",[2],47%
same,"kinase still bound, per cent of control",FLT4 (human),97%
same,"kinase still bound, per cent of control",FRK (human),100%
same,"kinase still bound, per cent of control",FYN (human),96%
same,"kinase still bound, per cent of control",[3],82%
same,"kinase still bound, per cent of control",KDR (human),100%
same,"kinase still bound, per cent of control",MAP3K6 (human),64%
same,"kinase still bound, per cent of control",MAP3K9 (human),89%
same,"kinase still bound, per cent of control",MAPK10 (human),62%
same,"kinase still bound, per cent of control",MAPKAPK2 (human),100%
same,"kinase still bound, per cent of control",MATK (human),75%
same,"kinase still bound, per cent of control",MELK (human),100%
same,"kinase still bound, per cent of control",PAK7 (human),75%
same,"kinase still bound, per cent of control",PDGFRB (human),82%
same,"kinase still bound, per cent of control",[4],100%
same,"kinase still bound, per cent of control",PRKD1 (human),100%
same,"kinase still bound, per cent of control",PRKD3 (human),78%
same,"kinase still bound, per cent of control",PRPF4B (human),100%
same,"kinase still bound, per cent of control",RAF1 (human),91%
same,"kinase still bound, per cent of control",[5],100%
same,"kinase still bound, per cent of control",RIPK4 (human),100%
same,"kinase still bound, per cent of control",ROS1 (human),100%
same,"kinase still bound, per cent of control",RPS6KA6 KD1 (human),75%
same,"kinase still bound, per cent of control",SRC (human),100%
same,"kinase still bound, per cent of control",STK16 (human),29%
same,"kinase still bound, per cent of control",ULK1 (human),96%
